Data as given in article PMC7041630 (Experimental neurology, 2018).

Legend:
[1] = Liver microsome stability assay; assay type: in vitro ADME, macaque; details: 2 μM compound, 0.5 mg mL−1 microsomes, with NADPH, one hour
[2] = Single-dose IV/PO pharmacokinetics in rats; assay type: in vivo, rat; details: for bioavailability: oral dosing, 1% methylcellulose vehicle
WT-LRRK2 = assay type: in vivo, rat; details: non-transgenic rats; for phospho-LRRK2 in total protein lysates from kidney: higher concentrations of inhibitor; for total LRRK2 protein in the brain: higher concentrations, three days; for total LRRK2 protein in the lung (normalized to HSC70): three days of drug treatment
[3] = system: pT73-Rab10 in mouse macrophages; assay: Ex vivo pT73-Rab10 western blot, mouse macrophages; assay type: cell-based; details: 100 nM, two hours
[4] = system: pT73-Rab10 in human neutrophils; assay: Ex vivo pT73-Rab10 western blot, human neutrophils; assay type: cell-based; details: 100 nM, two hours
[5] = system: pT73-Rab10 in human PBMCs; assay: Ex vivo pT73-Rab10 western blot, human PBMCs; assay type: cell-based; details: 100 nM, two hours
Drug properties = assay type: physicochemical
LRRK2 = details: ref Fell et al., 2015, Henderson et al., West; cited from earlier work
[6] = biological target: recombinant human WT-LRRK2 (Homo sapiens, UniProt Q5S007); assay: LanthaScreen LRRKtide phosphorylation assay, WT-LRRK2; assay type: biochemical; details: LanthaScreen at Km,app(ATP)
recombinant human WT-LRRK2, sequence (Q5S007 whole entry): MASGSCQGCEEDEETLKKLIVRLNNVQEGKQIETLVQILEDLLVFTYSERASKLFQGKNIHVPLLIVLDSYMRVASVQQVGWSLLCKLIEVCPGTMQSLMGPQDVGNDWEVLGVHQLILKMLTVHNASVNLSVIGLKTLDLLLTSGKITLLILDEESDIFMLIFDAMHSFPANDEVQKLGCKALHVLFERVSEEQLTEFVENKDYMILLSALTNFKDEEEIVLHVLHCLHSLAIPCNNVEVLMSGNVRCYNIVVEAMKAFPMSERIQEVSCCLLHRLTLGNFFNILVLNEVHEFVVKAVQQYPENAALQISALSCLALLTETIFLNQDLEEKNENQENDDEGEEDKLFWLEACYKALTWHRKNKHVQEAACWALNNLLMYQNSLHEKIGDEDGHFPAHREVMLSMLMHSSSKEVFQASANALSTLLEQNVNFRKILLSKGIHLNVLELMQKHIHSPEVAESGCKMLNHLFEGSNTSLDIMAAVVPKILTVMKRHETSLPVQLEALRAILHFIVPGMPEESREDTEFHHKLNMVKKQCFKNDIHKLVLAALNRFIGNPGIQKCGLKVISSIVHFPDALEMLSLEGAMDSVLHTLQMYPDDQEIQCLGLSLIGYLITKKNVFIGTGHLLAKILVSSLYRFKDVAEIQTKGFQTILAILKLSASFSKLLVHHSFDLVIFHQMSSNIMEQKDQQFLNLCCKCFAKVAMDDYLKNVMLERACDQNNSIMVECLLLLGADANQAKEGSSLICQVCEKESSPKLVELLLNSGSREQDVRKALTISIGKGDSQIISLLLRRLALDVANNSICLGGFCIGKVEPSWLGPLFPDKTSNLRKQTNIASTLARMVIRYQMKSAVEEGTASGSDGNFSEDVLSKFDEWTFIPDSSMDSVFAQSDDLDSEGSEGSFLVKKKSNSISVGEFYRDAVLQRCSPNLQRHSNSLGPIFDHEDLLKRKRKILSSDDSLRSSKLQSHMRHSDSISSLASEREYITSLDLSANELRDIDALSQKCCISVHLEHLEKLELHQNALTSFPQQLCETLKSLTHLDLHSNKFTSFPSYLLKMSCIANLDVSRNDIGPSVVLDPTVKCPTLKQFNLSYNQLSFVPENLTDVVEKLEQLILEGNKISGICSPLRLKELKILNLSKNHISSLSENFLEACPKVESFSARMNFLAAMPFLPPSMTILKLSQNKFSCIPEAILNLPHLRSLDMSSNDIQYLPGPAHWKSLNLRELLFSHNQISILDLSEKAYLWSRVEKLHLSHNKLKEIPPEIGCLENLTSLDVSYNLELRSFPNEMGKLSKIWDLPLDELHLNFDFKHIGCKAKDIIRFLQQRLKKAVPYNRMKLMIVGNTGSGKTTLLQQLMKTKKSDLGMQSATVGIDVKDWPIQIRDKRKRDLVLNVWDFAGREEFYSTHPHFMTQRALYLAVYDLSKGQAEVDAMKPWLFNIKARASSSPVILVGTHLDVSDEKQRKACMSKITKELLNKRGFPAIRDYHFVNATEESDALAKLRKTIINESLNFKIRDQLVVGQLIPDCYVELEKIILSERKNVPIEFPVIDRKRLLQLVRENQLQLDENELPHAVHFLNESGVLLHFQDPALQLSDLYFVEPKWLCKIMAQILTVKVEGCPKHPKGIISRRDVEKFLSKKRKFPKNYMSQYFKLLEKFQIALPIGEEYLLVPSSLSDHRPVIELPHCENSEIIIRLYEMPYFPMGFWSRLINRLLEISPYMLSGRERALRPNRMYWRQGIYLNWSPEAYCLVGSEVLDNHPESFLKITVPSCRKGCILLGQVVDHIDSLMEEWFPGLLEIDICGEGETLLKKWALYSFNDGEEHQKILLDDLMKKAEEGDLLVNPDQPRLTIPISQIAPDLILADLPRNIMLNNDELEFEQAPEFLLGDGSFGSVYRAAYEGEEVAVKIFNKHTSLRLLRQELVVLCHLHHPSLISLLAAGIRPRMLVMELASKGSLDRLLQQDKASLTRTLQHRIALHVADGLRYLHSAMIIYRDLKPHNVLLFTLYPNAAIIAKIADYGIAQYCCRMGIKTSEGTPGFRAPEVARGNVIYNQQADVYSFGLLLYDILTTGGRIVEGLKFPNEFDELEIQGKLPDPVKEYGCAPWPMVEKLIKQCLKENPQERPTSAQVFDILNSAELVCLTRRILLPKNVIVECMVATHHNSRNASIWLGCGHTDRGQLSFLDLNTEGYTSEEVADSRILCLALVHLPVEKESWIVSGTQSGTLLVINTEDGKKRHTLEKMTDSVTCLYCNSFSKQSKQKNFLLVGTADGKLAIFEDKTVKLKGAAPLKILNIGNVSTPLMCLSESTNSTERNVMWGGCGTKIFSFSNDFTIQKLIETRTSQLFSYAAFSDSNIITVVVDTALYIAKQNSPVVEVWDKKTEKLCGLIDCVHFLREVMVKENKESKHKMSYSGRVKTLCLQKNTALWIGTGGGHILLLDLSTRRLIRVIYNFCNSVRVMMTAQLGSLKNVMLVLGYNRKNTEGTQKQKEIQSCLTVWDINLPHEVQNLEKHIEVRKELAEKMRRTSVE

[7] = In-diet dosing, plasma drug levels in rats; assay type: in vivo, rat; details: chow up to 1050 mg kg−1

| SMILES | microsomal stability, compound remaining [1] | brain penetrant [2] | bioavailability [2] | phospho-LRRK2 in total protein lysates from kidney (WT-LRRK2) | total LRRK2 protein in the brain (WT-LRRK2) | total LRRK2 protein in the lung (normalized to HSC70) (WT-LRRK2) | pT73-Rab10 signal [3] | pT73-Rab10 signal [4] | pRab10 signal [5] | aqueous solubility (Drug properties; compared to PF-360) | binding in vitro (LRRK2) | more potent in blocking LRRKtide phosphorylation than autophosphorylation [6] | brain-to-plasma ratio (total compound) [2] | correlation of plasma to brain concentrations (r) ([2]; total compound) | highest plasma concentration achieved with in-diet dosing [7] | lipophilicity (Drug properties; compared to MLi2) |
| --- | --- | --- | --- | --- | --- | --- | --- | --- | --- | --- | --- | --- | --- | --- | --- | --- |
| C[C@@H]1CN(c2cc(-c3n[nH]c4ccc(OC5(C)CC5)cc34)ncn2)C[C@H](C)O1 [MLi2] | no significant concentrations of compound left after one-hour incubation | ~ 75% | ~ 40% | essentially no phospho-LRRK2 remaining | did not show these trends | did not reduce | virtually eliminated pT73-Rab10 signal | virtually eliminated pT73-Rab10 signal | could not observe a reliable reduction in pRab10 | poor | low to sub-nanomolar | – | – | – | – | – |
| Cn1cc(-c2c[nH]c3ncnc(N4CCOCC4)c23)cc1C#N [PF-360] | no significant concentrations of compound left after one-hour incubation | – | ~ 40% | essentially no phospho-LRRK2 remaining | reduce total LRRK2 protein in the brain nearly to the same extent as reducing the amount of phosphorylated LRRK2 protein | did not reduce | – | – | – | – | low to sub-nanomolar | ~ 1 order of magnitude | 0.48±0.03 | 0.89 | ≤ 100 nM | lower lipophilicity |
